Data from patent US20020061839A1, “Serine peptidase modulators” (priority 1998, published 2002).
Where a name gives a salt, the structure may show the parent alone. Read-outs that look alike come from different tables or passages of the source.

Tests used:
in vitro = conditions: human, plasma
DPP IV = target: T1, DPP IV (Homo sapiens, UniProt P27487); experiment: biochemical; assay type: biochemical; conditions: for kinact/KI: 0.25 h, pH 8.3, read-out: kcalc (second order rate constant of inactivation)
T1 construct: DPP IV was purified from human seminal plasma as described previously; from tissue; host or cells: human seminal plasma
T1 sequence (P27487 whole entry): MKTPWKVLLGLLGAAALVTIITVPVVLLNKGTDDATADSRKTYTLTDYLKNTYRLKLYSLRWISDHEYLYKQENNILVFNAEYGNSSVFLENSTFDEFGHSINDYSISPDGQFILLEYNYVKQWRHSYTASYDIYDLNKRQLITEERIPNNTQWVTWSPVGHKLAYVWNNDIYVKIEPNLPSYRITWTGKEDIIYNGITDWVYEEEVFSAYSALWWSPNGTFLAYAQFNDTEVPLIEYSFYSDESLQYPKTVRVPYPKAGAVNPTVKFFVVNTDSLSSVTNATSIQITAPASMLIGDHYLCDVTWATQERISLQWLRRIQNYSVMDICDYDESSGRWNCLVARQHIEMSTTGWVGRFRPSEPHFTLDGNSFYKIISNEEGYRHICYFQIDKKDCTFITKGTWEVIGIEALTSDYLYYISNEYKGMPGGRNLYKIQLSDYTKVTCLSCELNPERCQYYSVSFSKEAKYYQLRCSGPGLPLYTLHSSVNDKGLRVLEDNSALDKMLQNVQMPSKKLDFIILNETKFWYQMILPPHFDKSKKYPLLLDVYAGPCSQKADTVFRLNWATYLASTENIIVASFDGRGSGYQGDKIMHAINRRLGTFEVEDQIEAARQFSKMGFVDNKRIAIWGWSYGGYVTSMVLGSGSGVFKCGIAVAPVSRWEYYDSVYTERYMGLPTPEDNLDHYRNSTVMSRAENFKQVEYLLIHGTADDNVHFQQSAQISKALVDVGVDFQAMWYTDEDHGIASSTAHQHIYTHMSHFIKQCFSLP
Method: Enzymatic activity was measured at 37° C. in a Spectramax 340 (Molecular Devices) microtiterplate reader using Gly—Pro-p-nitroanilide (Sigma) as a chromogenic substrate. […] The reaction mixture contained 2 mM substrate, approximately 1 mU of DPP IV, 40 EM TRIS-HCl buffer, pH 8.3, and a suitable amount of inhibitor (ranging between 0 an 10 mM) in a total volume of 0.2 ml. Activity measurements were routinely performed in duplicate.
Stock solutions were diluted with 50 mM TRIS-HCl buffer, pH 8.3, as required, immediately before the experiment. […] For a simple pseudo-first order inactivation process, the activity after incubation with inhibitor (vi) varies with the inhibitor concentration (i) as described in the following equation: vi=vo * e-k.i.t, where vo is the activity in absence of inhibitor, k is the second order rate constant of inactivation and t is the time.

[1] = 15 min pre-incubation with DPP IV at 37° C., average ± standard deviation

| SMILES | half-life at 1 mM (in vitro) | potency compared to the diastereoisomeric mixture 5 (DPP IV; DPP IV inhibition) | kinact/KI (DPP IV) | IC50 (DPP IV; [1]) | IC50 (DPP IV) |
| --- | --- | --- | --- | --- | --- |
| CC(=O)Nc1cccc(OP(=O)(Oc2cccc(NC(C)=O)c2)C2CCCN2C(=O)[C@@H]2CCCN2)c1.Cl (mixture of isomers) [11d, Di(3-acetamidophenyl) 1-((S)-prolyl)pyrrolidine-2(R,S)-phosphonate hydrochloride] | 3.67 ± 0.5 h | – | – | – | – |
| CS(=O)(=O)Nc1ccc(OP(=O)(Oc2ccc(NS(C)(=O)=O)cc2)C2CCCN2C(=O)[C@@H]2CCCN2)cc1.Cl (mixture of isomers) [11f, Di(4-methylsulfonylaminophenyl) 1-((S)-prolyl)-pyrrolidine-2(R,S)-phosphonate hydrochloride] | 2.5 ± 0.5 h | about 100 times | – | – | – |
| NC(=O)Nc1cccc(OP(=O)(Oc2cccc(NC(N)=O)c2)C2CCCN2C(=O)[C@@H]2CCCN2)c1 (mixture of isomers) [11g, Di(3-ureylphenyl) 1-((S)-prolyl)pyrrolidine-2(R,S)-phosphonate hydrochloride] | 3.5 ± 1.33 h | – | 330 M⁻¹ s⁻¹ | 2300 ± 300 nM | – |
| Cl.O=C(CNC(=O)c1ccccc1)Nc1ccc(OP(=O)(Oc2ccc(NC(=O)CNC(=O)c3ccccc3)cc2)C2CCCN2C(=O)[C@@H]2CCCN2)cc1 (mixture of isomers) [11h, Di[4-(N-benzoylglycylamino)phenyl]-1-((S)-prolyl)pyrrolidine-2(R,S)-phosphonate hydrochloride] | 1.55 ± 0.05 h | – | – | – | – |
| Cl.Cl.Cl.NCC(=O)Nc1ccc(OP(=O)(Oc2ccc(NC(=O)CN)cc2)C2CCCN2C(=O)[C@@H]2CCCN2)cc1 (mixture of isomers) [11i, Di[4-(N-glycylamino)phenyl]-1-((S)-prolyl)-pyrrolidine-2(R,S)-phosphonate trihydrochloride] | 0.467 ± 0.05 h | – | – | – | – |
| C[C@H](N)C(=O)Nc1ccc(OP(=O)(Oc2ccc(NC(=O)[C@H](C)N)cc2)C2CCCN2C(=O)[C@@H]2CCCN2)cc1 (mixture of isomers) [11j, Di(4-(S)-alanylaminophenyl)-1-((S)-prolyl)pyrrolidine-2(R,S)-phosphonate trihydrochloride] | 0.133 ± 0.0167 h | – | 1300 M⁻¹ s⁻¹ | 600 ± 200 nM | – |
| O=C1CC[C@@H](C(=O)Nc2ccc(OP(=O)(Oc3ccc(NC(=O)[C@@H]4CCC(=O)N4)cc3)C3CCCN3C(=O)[C@@H]3CCCN3)cc2)N1 (mixture of isomers) [11k, Di(4-(S)-pyroglutamylaminophenyl)-1-((S)-prolyl)pyrrolidine-2(R,S)-phosphonate hydrochloride] | 2.83 ± 0.5 h | – | 150 M⁻¹ s⁻¹ | 5000 ± 800 nM | – |
| COC(=O)CCNC(=O)c1ccc(OP(=O)(Oc2ccc(C(=O)NCCC(=O)OC)cc2)C2CCCN2C(=O)[C@@H]2CCCN2)cc1.Cl (mixture of isomers) [11o, Di{4-[2-(methoxycarbonyl)ethylaminocarbonyl]phenyl}1-((S)-prolyl)-pyrrolidine-2(R,S)-phosphonate hydrochloride] | 0.433 ± 0.0167 h | – | – | – | – |
| CCCNC(=O)c1ccc(OP(=O)(Oc2ccc(C(=O)NCCC)cc2)C2CCCN2C(=O)[C@@H]2CCCN2)cc1.Cl (mixture of isomers) [11p, Di[4-(n-propylaminocarbonyl)phenyl]1-((S)-prolyl)-pyrrolidine-2(R,S)-phosphonate hydrochloride] | 0.2 ± 0.0167 h | – | – | – | – |
| COP(=O)(Oc1ccccc1-c1ccccc1O)C1CCCN1C(=O)[C@@H]1CCCN1 (mixture of isomers) [compound 18, 2-(2′-Hydroxyphenyl)phenyl methyl 1-(S)-prolyl)-pyrrolidine-2(R,S)-phosphonate hydrochloride] | 2.33 ± 1.33 h | – | 16 M⁻¹ s⁻¹ | – | 47000 nM |
| COC(=O)C(Cc1ccc(OP(=O)(Oc2ccc(CC(NC(C)=O)C(=O)OC)cc2)C2CCCN2C(=O)C2CCCN2)cc1)NC(C)=O [11l, Di{4-[-(S)-(2-methoxycarbonyl-2-acetamido)ethyl]phenyl}1-((S)-prolyl)pyrrolidine-2-phosphonate hydrochloride] | 3.17 ± 2.5 h | – | 550 M⁻¹ s⁻¹ | – | 1400 nM |
